In patent publication US20120148633A1, “BINARY AND TERTIARY GALVANIC PARTICULATES AND METHODS OF MANUFACTURING AND USE THEREOF” (priority 2009, published 2012):

Legend:
[1] = test system: acetic acid-induced writhes; assay: Acetic acid-induced writhing, oral administration; format: in vivo, Albino male CD-1 mice; conditions: 100 mg/kg orally 1 hour prior to i.p. acetic acid
Procedure: In this example, galvanic particulates produced by the process of Example 1 were evaluated for analgesic activity. Aspirin, a non-steroidal analgesic agent, which is known to show efficacy in this model, was included as a reference compound. Albino male CD-1 mice, weighing 24±2 g were used in the study. Galvanic particulates or aspirin were prepared in deionized water (DI Water) and were administered orally at a concentration of 100 mg/kg to mice 1 hour prior to injection of acetic acid. A […] of a 0.5% acetic acid solution was injected intraperitoneally, and the number of acetic acid-induced writhes were counted by an observer blinded to the treatment groups. A 50% decrease in the number of writhes indicated analgesic activity.

[2] = test system: oxazolone-induced skin inflammation; assay: Murine model of contact hypersensitivity (oxazolone ear inflammation), topical; format: in vivo, Albino male CD-1 mice; conditions: 1 mg/ml, 20 μl to left ear 1 hour after oxazolone challenge; ear biopsy weight at 24 hours

| Structure (SMILES) | Analgesic Effectiveness (Percent Reduction Writhes) [1] [%] | Total Number of Writhes (Mean ± Std Dev) ([1]; vehicle 11.4 ± 6.1) | Percent Inhibition of Skin Inflammation [2] |
| --- | --- | --- | --- |
| CC(=O)Oc1ccccc1C(=O)O [Aspirin] | 56 | 5.0 ± 3.6 | – |
| C[C@]12CCC(=O)C=C1CC[C@@H]1[C@@H]2[C@@H](O)C[C@@]2(C)[C@H]1CC[C@]2(O)C(=O)CO [Hydrocortisone] | – | – | 70.3% ± 6.6% |
